# From patent US10278942B2 (PELOTON THERAPEUTICS, INC., priority 2015, dated 2019)
# Where two headings read alike, the source gives them in different places.
# What was measured:
# [1] = biological target: T1, HIF-2α HIS TAG-PASB Domain (Homo sapiens, UniProt Q99814); experiment: HIF-2α Scintillation Proximity Assay (SPA); assay type: binding
# T1 construct: 100 nM HIF-2α HIS TAG-PASB Domain
# How it was run: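 IC50 values rest on percent inhibition, where the sample signal is scaled between high and low controls. Wells contain about 100 μL: compound dispensed as 2 μL of DMSO solution, 88 μL protein-probe mix and 10 μL of beads.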
# 786-O-Hif-Luc cells = experiment: Luciferase Assay (HIF responsive elements reporter)
# Method: A pool of infected cells were then selected against 2 μg/mL of puromycin (P8833, Sigma) for 10 days followed by limited dilution to select single clones. […] Each concentration was tested in triplicate. After about 24 hours, luciferase activity was determined using ONE-Glo Luciferase Assay Reagent (E6110, Promega) following the manufacturer's recommended procedure. EC50 were calculated using Dotmatics software.
# [2] = read-out: Scintillation Proximity Assay IC50
# [3] = read-out: Mean Luciferase EC50 (nM), 786-O-Hif-Luc cells
# [4] = Scintillation Proximity Assay IC50 (nM)
# [5] = read-out: Mean Luciferase EC50 (nM)
# T1 sequence (Q99814 240-350 limits assumed): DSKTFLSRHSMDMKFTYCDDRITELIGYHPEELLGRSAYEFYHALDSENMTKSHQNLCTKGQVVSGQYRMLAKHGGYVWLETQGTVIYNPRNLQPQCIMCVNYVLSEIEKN
Compound,"IC50 [1, 2]",EC50 (786-O-Hif-Luc cells; [3]),"IC50 [1, 4]",EC50 (786-O-Hif-Luc cells; [5])
N#Cc1cccc(Oc2ccc(S(=O)(=O)C(F)F)c(C#N)c2Cl)c1 [Compound 40],250 to 1000 nM,> 1000 nM,–,–
"CS(=O)(=O)c1ccc(Sc2cccc(C#N)c2)c2c1[C@H](O)C(F)(F)[C@@H]2F [Compound 492, 3-(((1S,3R)-2,2,3-trifluoro-1-hydroxy-(methylsulfonyl)-2,3-dihydro-1H-inden-4-yl)thio)benzonitrile]",> 1000 nM,> 1000 nM,–,–
O=S(=O)(c1ccc(C2CC2)c2c1C(O)C(F)(F)C2)C(F)(F)F (stereo not drawn) [Compound 513],250 to 1000 nM,> 1000 nM,–,–
N#CCC1(COc2ccc(S(=O)(=O)C(F)(F)F)c3c2CC(F)(F)[C@H]3O)COC1 [Compound 707],250 to 1000 nM,250 to 1000 nM,–,–
CCCOc1ccc(C(F)(F)F)c2c1CC(F)(F)[C@H]2O [Compound 704],< 50 nM,< 50 nM,–,–
O=Cc1c(S(=O)(=O)C(F)(F)F)ccc(Oc2cc(F)cc(Cl)c2)c1Br [Compound 101],< 50 nM,250 to 1000 nM,–,–
O=S1(=O)c2ccc(OCc3ccccc3)c(C(F)F)c2C(O)C1(F)F (stereo not drawn) [Compound 411],250 to 1000 nM,250 to 1000 nM,–,–
N=S1(=O)c2ccc(Oc3cc(F)cc(F)c3)c(Br)c2C(O)C1(F)F (stereo not drawn) [Compound 377],> 1000 nM,250 to 1000 nM,–,–
CC(Oc1ccc(S(C)(=O)=O)c2c1[C@@H](F)C(F)(F)[C@H]2O)C(F)F (stereo partly drawn) [Compound 774],< 50 nM,250 to 1000 nM,–,–
O=S(=O)(c1ccc(OC[C@H]2CC2(F)F)c2c1[C@H](O)C(F)(F)C2)C(F)(F)F [Compound 727],< 50 nM,< 50 nM,–,–
OC1CCc2c(OCC(F)F)ccc(C(F)(F)F)c21 (stereo not drawn) [Compound 696],50 to 249 nM,50 to 249 nM,–,–
COC[C@H](C)Oc1ccc(S(=O)(=O)C(F)(F)F)c2c1CC(F)(F)[C@H]2O [Compound 660],50 to 249 nM,250 to 1000 nM,–,–
O=S(=O)(c1ccc(-c2cc(F)cc(Cl)c2)c2c1[C@H](O)C(F)(F)C2)C(F)(F)F [Compound 557],< 50 nM,250 to 1000 nM,–,–
O=S(=O)(c1ccc([C@H]2CCC[C@@H](O)C2)c2c1[C@H](O)C(F)(F)C2)C(F)(F)F [Compound 483],< 50 nM,250 to 1000 nM,–,–
O=S(=O)(c1ccc(Nc2cc(F)cc(F)c2)c2c1C(O)CC2)C(F)(F)F (stereo not drawn) [Compound 506],250 to 1000 nM,> 1000 nM,–,–
O=S1(=O)CCC(Oc2ccc(S(=O)(=O)C(F)(F)F)c3c2CC(F)(F)[C@H]3O)CC1 [Compound 721],> 1000 nM,> 1000 nM,–,–
N#Cc1c(S(=O)(=O)C(F)(F)F)ccc(Oc2cc(F)cc(Cl)c2)c1Cl [Compound 111],< 50 nM,> 1000 nM,–,–
Cc1c(Oc2cc(F)cc(Cl)c2)ccc(S(=O)(=O)C(F)(F)F)c1Cl [Compound 143],< 50 nM,> 1000 nM,–,–
CS(=O)(=O)c1ccc(Oc2cc(F)cc(C#N)c2)c2c1C(=O)C(F)(Cl)C2 (stereo not drawn) [Compound 269],250 to 1000 nM,> 1000 nM,–,–
CC1(C)CCC(=O)[C@H](c2ccc(S(=O)(=O)C(F)(F)F)c3c2CC(F)(F)[C@H]3O)C1 [Compound 542],250 to 1000 nM,> 1000 nM,–,–
N[C@@H]1c2c(ccc(Oc3cc(F)cc(F)c3)c2C(F)F)S(=O)(=O)C1(F)F [Compound 401],< 50 nM,50 to 249 nM,–,–

Compound,"IC50 [1, 2]",EC50 (786-O-Hif-Luc cells; [3]),"IC50 [1, 4]",EC50 (786-O-Hif-Luc cells; [5])
O=S(=O)(c1ccc(Oc2cncc(F)c2)c2c1[C@H](O)CC2)C(F)F [Compound 5],250 to 1000 nM,250 to 1000 nM,–,–
O=S(=O)(c1ccc(-c2cccnc2)c2c1[C@H](O)C(F)(F)C2)C(F)(F)F [Compound 558],> 1000 nM,> 1000 nM,–,–
CS(=O)(=O)c1ccc(Oc2cc(F)cc(C#N)c2)c(C#N)c1Cl [Compound 152],250 to 1000 nM,> 1000 nM,–,–
Cc1cc(S(=O)(=O)C(F)F)ccc1Oc1cc(F)cc(Cl)c1 [Compound 135],250 to 1000 nM,> 1000 nM,–,–
CCCOc1ccc(I)c2c1CC(F)(F)C2O (stereo not drawn) [Compound 682],50 to 249 nM,250 to 1000 nM,–,–
CCOc1ccc(S(C)(=O)=O)c2c1CC(F)(F)[C@H]2O [Compound 778],< 50 nM,> 1000 nM,–,–
N#CN=S1(=O)c2ccc(Oc3cc(F)cc(F)c3)c(C(F)F)c2C(O)C1(F)F (stereo not drawn) [Compound 397],< 50 nM,> 1000 nM,–,–
CCOC(=O)/C=C/c1c(S(=O)(=O)C(F)(F)F)ccc(Oc2cc(F)cc(C#N)c2)c1C [Compound 148],50 to 249 nM,> 1000 nM,–,–
C[C@]1(C#N)C[C@H](Oc2ccc(S(=O)(=O)C(F)(F)F)c3c2CC(F)(F)[C@H]3O)C1 [Compound 788],50 to 249 nM,250 to 1000 nM,–,–
C[C@]1(C#N)C[C@H](Oc2ccc(S(=O)(=O)C(F)(F)F)c3c2C[C@H](F)[C@H]3O)C1 [Compound 795],50 to 249 nM,50 to 249 nM,–,–
N#Cc1cc(Oc2ccc(S(=O)(=O)C(F)F)c3c2CC(F)(F)[C@H]3O)ccc1F [Compound 200],< 50 nM,50 to 249 nM,–,–
Cc1c(S(=O)(=O)C(F)F)ccc(Oc2cc(F)cc(C#N)c2)c1C#N [Compound 33],50 to 249 nM,> 1000 nM,–,–
O=S(=O)(c1ccc(Oc2ccc(F)c(Cl)c2)c2c1C(O)CC2)C(F)(F)F (stereo not drawn) [Compound 218],250 to 1000 nM,> 1000 nM,–,–
"O=S(=O)(c1ccc([C@@H]2CCC[C@@H](O)C2)c2c1[C@H](O)C(F)(F)C2)C(F)(F)F [Compound 480, (S)-2,2-difluoro-4-((1R,3R)-3-hydroxycyclohexyl)-7-((trifluoromethyl)sulfonyl)-2,3-dihydro-1H-inden-1-ol]",50 to 249 nM,50 to 249 nM,–,–
O=S(=O)(c1ccc(O[C@@H]2CCCOC2)c2c1[C@H](O)C(F)(F)C2)C(F)(F)F [Compound 730],50 to 249 nM,50 to 249 nM,–,–
O=C1CCc2c(Oc3cc(F)cc(Cl)c3)ccc(S(=O)(=O)C(F)F)c21 [Compound 18],50 to 249 nM,> 1000 nM,–,–
Cc1nnc(/C=C/c2c(S(=O)(=O)C(F)(F)F)ccc(Oc3cc(F)cc(C#N)c3)c2C)o1 [Compound 151],> 1000 nM,> 1000 nM,–,–
O=S(=O)(c1ccc(Cc2ccccc2)c2c1C(O)C(F)(F)C2)C(F)(F)F (stereo not drawn) [Compound 511],250 to 1000 nM,> 1000 nM,–,–
O=S(=O)(c1ccc(Cn2cncn2)c2c1[C@H](O)C(F)(F)C2)C(F)(F)F [Compound 534],> 1000 nM,> 1000 nM,–,–
N#Cc1cncc(Oc2ccc(S(=O)(=O)C(F)(F)F)c3c2CCC3O)c1 (stereo not drawn) [Compound 220],250 to 1000 nM,> 1000 nM,–,–
O=S(=O)(c1ccc(OC2CCNCC2)c2c1C(O)C(F)(F)C2)C(F)(F)F (stereo not drawn) [Compound 607],< 50 nM,> 1000 nM,–,–

Compound,"IC50 [1, 2]",EC50 (786-O-Hif-Luc cells; [3]),"IC50 [1, 4]",EC50 (786-O-Hif-Luc cells; [5])
N#Cc1cc(F)cc(Oc2ccc(S(=O)(=O)C(F)(F)F)c(C#N)c2Br)c1 [Compound 100],50 to 249 nM,> 1000 nM,–,–
O=S1(=O)c2ccc(Oc3cc(F)cc(Cl)c3)c(Br)c2[C@@H](O)C1(F)F [Compound 403],–,–,< 50 nM,< 50 nM
Cc1cc(Oc2ccc(S(=O)(=O)C(F)F)c3c2CC(F)(F)[C@H]3O)ccc1F [Compound 198],< 50 nM,250 to 1000 nM,–,–
CC1(O)c2c(ccc(Oc3cc(F)cc(F)c3)c2Br)S(=O)(=O)C1(F)F (stereo not drawn) [Compound 444],50 to 249 nM,250 to 1000 nM,–,–
CS(=O)(=O)c1ccc(Oc2cc(F)cc(C#N)c2)c2c1[C@H](O)[C@H](F)[C@@H]2O [Compound 296],> 1000 nM,> 1000 nM,–,–
[2H]C1(O)c2c(ccc(Oc3cc(F)cc(Cl)c3)c2C(F)F)S(=O)(=O)C1(F)F (stereo not drawn) [Compound 371],–,–,< 50 nM,< 50 nM
O=S1(=O)c2ccc(Oc3cccc4sccc34)c(C(F)F)c2C(O)C1(F)F (stereo not drawn) [Compound 440],< 50 nM,250 to 1000 nM,–,–
O=S(=O)(c1ccc(OCc2ccccc2)c2c1C(O)C(F)(F)C2)C(F)(F)F (stereo not drawn) [Compound 663],50 to 249 nM,250 to 1000 nM,–,–
O=S(=O)(c1ccc(Oc2cc(F)cc(F)c2)c(Cl)c1CO)C(F)F [Compound 168],< 50 nM,250 to 1000 nM,–,–
O=S1(=O)CC(O)c2c1ccc(Oc1cc(F)cc(Cl)c1)c2C(F)F (stereo not drawn) [Compound 361],50 to 249 nM,250 to 1000 nM,–,–
O=S(=O)(c1ccc(Oc2cc(F)cc(Cl)c2)c2c1[C@H](O)CC2)C(F)(F)F [Compound 56],< 50 nM,50 to 249 nM,–,–
CS(=O)(=O)N[C@H]1C[C@@H](Oc2ccc(S(=O)(=O)C(F)(F)F)c3c2CC(F)(F)[C@H]3O)C1 [Compound 726],> 1000 nM,> 1000 nM,–,–
N#Cc1cc(F)cc(Oc2ccc(S(=O)(=O)C(F)(F)F)cc2C#N)c1 [Compound 120],250 to 1000 nM,> 1000 nM,–,–
N#Cc1cc(F)cc(Oc2ccc(S(=O)(=O)C(F)F)c3c2CC(F)(F)[C@H]3N)c1 [Compound 207],250 to 1000 nM,250 to 1000 nM,–,–
N#Cc1cc(F)cc(Oc2ccc(S(N)(=O)=O)c3c2C[C@@H](F)[C@H]3O)c1 [Compound 334],50 to 249 nM,50 to 249 nM,–,–
Cc1cc(S(=O)(=O)C(F)F)ccc1Oc1cc(F)cc(C#N)c1 [Compound 136],50 to 249 nM,> 1000 nM,–,–
O=S(=O)(c1ccc(Oc2ccc(F)c(Cl)c2)c2c1[C@H](O)C(F)(F)C2)C(F)(F)F [Compound 221],< 50 nM,< 50 nM,–,–
O=S(=O)(c1ccc(OCC2(F)COC2)c2c1[C@H](O)C(F)(F)C2)C(F)(F)F [Compound 573],< 50 nM,50 to 249 nM,–,–
N=S(=O)(c1ccc(Oc2cc(F)cc(Cl)c2)c(Br)c1Cl)C(F)(F)F (stereo not drawn) [Compound 75],50 to 249 nM,> 1000 nM,–,–
NC(=O)C1CCc2c(OCC(F)F)ccc(C(F)(F)F)c21 (stereo not drawn) [Compound 692],> 1000 nM,> 1000 nM,–,–
O=S(=O)(c1ccc(Oc2cc(F)cc(Cl)c2)c(Br)c1/C=N/O)C(F)(F)F [Compound 107],50 to 249 nM,250 to 1000 nM,–,–
